Results reported in PubChem BioAssay AID1996.
Converted amounts (≈) assume the structure as drawn.

Details: buffer; pH 7.4; 200.0 µM
`COc1ccc(C(=O)O)c(OC)n1` showed a solubility kinetic of over 27.5 µg/mL. Work on `CCN(CC)c1nc2c(c(=O)[nH]c(=O)n2C)n1Cc1ccccc1` yielded a solubility kinetic of 30.5 µg/mL (≈ 93.2 µM). `O=C1CCCN1CCCNC(=S)Nc1ccc(F)c(Cl)c1` showed a solubility kinetic of over 49.5 µg/mL. Compound `CCN(Cc1ccccc1)C(=O)c1oc2ccc(C)cc2c1C` has a solubility kinetic of 3 µg/mL (≈ 9.76 µM). For `O=C(NC1CCS(=O)(=O)C1)C1C2CC3CC(C2)CC1C3` (stereo not drawn), the solubility kinetic was over 44.6 µg/mL. Work on `CCn1c(=O)c(C(=O)CC#N)c(N)n(Cc2ccccc2)c1=O` yielded a solubility kinetic of 4.1 µg/mL (≈ 13.1 µM). In the case of `CC(C)(C)c1ccc(CN2C(=O)c3ccccc3S2(=O)=O)cc1`, the solubility kinetic is reported as 1.2 µg/mL (≈ 3.64 µM). `CC1(C)OC(=O)C(=CNC(CO)C(=O)O)C(=O)O1` (stereo not drawn) gave a solubility kinetic of over 38.9 µg/mL. For `CC(=O)c1ccc(NC(=O)CN2c3cccc4cccc(c34)S2(=O)=O)cc1`, the solubility kinetic was 7.2 µg/mL (≈ 18.9 µM). Work on `CCOc1ccccc1NC(=O)N1CCCN(c2ncccc2C#N)CC1` yielded a solubility kinetic of 45.7 µg/mL (≈ 125 µM). `CC(C)N1C(=O)CCC1C(=O)NCc1ccc(F)cc1Cl` (stereo not drawn) gave a solubility kinetic of over 46.9 µg/mL. With `O=C(c1ccc(Br)cc1)N1CCN(c2ncccn2)CC1` the solubility kinetic was 44.6 µg/mL (≈ 128 µM). Work on `CC(=O)Oc1ccc(NC(=O)Cc2ccccc2)c(C(=O)O)c1` yielded a solubility kinetic of over 47 µg/mL. For `O=C(CSc1nc2ccccc2c(=O)n1CCCN1CCOCC1)NCCc1ccccc1`, the solubility kinetic was 64.3 µg/mL (≈ 138 µM). `O=c1c2cc3c(nc2[nH]c(=S)n1-c1ccccc1)CCCC3` gave a solubility kinetic of 0.5 µg/mL (≈ 1.62 µM). For `CC(C)(C)NC(=O)CN(C(=O)C(=O)Nc1ccc2c(c1)OCCO2)C1CC1`, the solubility kinetic was over 56.3 µg/mL. Work on `Cc1ccc(C)c(NC(=S)N(CCc2ccncc2)C(C)C)c1` yielded a solubility kinetic of over 49.1 µg/mL. For `O=C(O)c1ccc(OCCN2CCCC2=O)cc1`, the solubility kinetic was 27.6 µg/mL (≈ 111 µM). With `S=C(Nc1cccnc1)N1CCc2ccccc21` the solubility kinetic was over 38.3 µg/mL. `O=C(NC1CC2CCCC(C1)N2C(=O)Nc1ccccc1Cl)C1CC1` (stereo not drawn) showed a solubility kinetic of over 54.3 µg/mL. `O=c1[nH]cccc1-c1nc2ccccc2n1Cc1ccc(F)cc1` gave a solubility kinetic of 47.7 µg/mL (≈ 149 µM). Compound `Cc1nc2cc(Cl)ccc2c(=O)n1Cc1ccncc1` has a solubility kinetic of over 42.9 µg/mL. With `CNC(=O)Cn1c(C)cc(=O)c2cccc(C)c21` the solubility kinetic was over 36.6 µg/mL. Work on `Cc1ccc(NC(=O)CN2C(=O)c3ccccc3C2=O)cc1` yielded a solubility kinetic of 2 µg/mL (≈ 6.8 µM). With `Cc1cc(C)c(C#N)c(SCCN2CCCCC2)n1` the solubility kinetic was over 41.3 µg/mL. With `O=C(Nc1nc2ccc(F)cc2s1)c1cccs1` the solubility kinetic was 1.1 µg/mL (≈ 3.95 µM). In the case of `COn1c(=O)c(-c2ccccc2)[n+]([O-])c2ccccc21`, the solubility kinetic is reported as over 40.2 µg/mL. In the case of `CCOC(=O)CNc1nc(Cl)nc(Nc2ccc(Cl)cc2)n1`, the solubility kinetic is reported as under 0.1 µg/mL. `Cc1cccc(-n2c(=S)[nH]c3ccccc3c2=O)n1` gave a solubility kinetic of over 40.4 µg/mL. With `Cc1cc(OCCn2ccnc2)cc(C)c1Cl` the solubility kinetic was 30.8 µg/mL (≈ 123 µM). For `N=C1S/C(=C\c2ccco2)C(=O)N1c1nccs1`, the solubility kinetic was 17.9 µg/mL (≈ 64.5 µM). `O=C(NCCCN1CCOCC1)c1ccc(Cl)c([N+](=O)[O-])c1` gave a solubility kinetic of 45.2 µg/mL (≈ 138 µM). For `O=C1OC2(O)C3C4C=CC(C4)C3C(=O)N2c2ccccc21` (stereo not drawn), the solubility kinetic was over 42.5 µg/mL. In the case of `CN1CCN(S(=O)(=O)c2cccc(C(=O)O)c2)CC1`, the solubility kinetic is reported as 42 µg/mL (≈ 148 µM). For `CCCNC(=O)c1nn2cc(Br)cnc2c1Cl`, the solubility kinetic was over 47.6 µg/mL. For `C=CCN(Cc1ccc(OC)c(OC)c1)C(=O)N1CCOCC1`, the solubility kinetic was over 48.1 µg/mL. With `Oc1ccc2ccccc2c1C=NC1CCCCC1` the solubility kinetic was over 38 µg/mL. Work on `CCS(=O)(=O)N1CCC(C(=O)NCc2ccc3c(c2)OCO3)CC1` yielded a solubility kinetic of over 53.2 µg/mL. For `O=C(/C=C/c1ccccc1)OCC(=O)N1CCCC1`, the solubility kinetic was over 38.9 µg/mL. `O=C1c2cccnc2C(=O)N1c1cccc([N+](=O)[O-])c1` showed a solubility kinetic of over 40.4 µg/mL. In the case of `CCc1cc(=O)oc2cc(OCC(=O)N3CCC(C(N)=O)CC3)ccc12`, the solubility kinetic is reported as over 53.8 µg/mL. With `Cc1ccc(SCc2ccc(C(=O)N3CCCC3)cc2)cc1` the solubility kinetic was 31 µg/mL (≈ 99.5 µM). In the case of `N#Cc1cc(Sc2ccccn2)c([N+](=O)[O-])cc1C#N`, the solubility kinetic is reported as over 42.3 µg/mL. For `O=C(Cn1cnc2ccccc21)Nc1cccc([N+](=O)[O-])c1`, the solubility kinetic was 42.8 µg/mL (≈ 144 µM). For `Cc1nnc(SCC(=O)O)s1`, the solubility kinetic was over 28.5 µg/mL. For `CCCCc1nc(NCCO)c(C#N)c2c1CCCC2`, the solubility kinetic was 3.6 µg/mL (≈ 13.2 µM). `Cc1ccc(C(=O)c2cc3c(cc2[N+](=O)[O-])OCCO3)cc1` gave a solubility kinetic of 8 µg/mL (≈ 26.7 µM). In the case of `CN(CC(=O)Nc1ccc(F)c(F)c1F)C(=O)/C=C/c1ccco1`, the solubility kinetic is reported as over 50.7 µg/mL.
